The nature of the data set: HLB value of the surfactant. Particulars: of the 30% anionic surfactant used in the composition. Type of data set: physicochemical. The text has this: The term “Hydrophilic-Lipophilic Balance” or “HLB,” refers to an empirical expression for the relationship of the hydrophilic and hydrophobic groups of an emulsifier. This term is well known to those skilled in the art. See, e.g., “The HLB system.
Turning to `CCCCCCCCCCCCOS(=O)(=O)[O-].[Na+]` [SODIUM LAURYL SULFATE], the “HLB VALUE” is 40.1.
Regarding DECYL GLUCOSIDE (APGS), the “HLB VALUE” worked out at 13.
To SODIUM COCOYL GLYCINATE belongs 14; to SODIUM LAUROYL SARCOSINATE, 29.8.
